# In patent publication US8623856B2, “Phenoxy-azetidine derivatives as sphingosine 1-phosphate (S1P) receptor modulators” (Allergan, Inc., priority 2012, dated 2014):
# Target: T1, human S1P1 receptor (Homo sapiens, UniProt P21453)
# T1 construct: expressed in transfected cells; host or cells: unnamed cell line stably expressing the S1P1 receptor; membranes were used
# Experiment: GTP γ35S binding assay for S1P1 activity
# Type: biochemical
# Conditions: membranes of cells stably expressing the S1P1 receptor, agonist activity potency
# Procedure: Compounds were synthesized and tested for S1P1 activity using the GTP γ^35S binding assay. These compounds may be assessed for their ability to activate or block activation of the human S1P1 receptor in cells stably expressing the S1P1 receptor. GTP γ^35S binding was measured in the medium containing (mM) HEPES 25, pH 7.4, MgCl2 10, NaCl 100, dithitothreitol 0.5, digitonin 0.003%, 0.2 nM GTP γ^35S, and 5 μg membrane protein in a volume of 150 μl. Test compounds were included in the concentration range from 0.08 to 5,000 nM unless indicated otherwise. Membranes were incubated with 100 μM 5′-adenylylimmidodiphosphate for 30 min, and subsequently with 10 μM GDP for 10 min on ice. Drug solutions and membrane were mixed, and then reactions were initiated by adding GTP γ^35S and continued for 30 min at 25° C. Reaction mixtures were filtered over Whatman GF/B filters under vacuum, and washed three times with 3 mL of ice-cold buffer (HEPES 25, pH7.4, MgCl2 10 and NaCl 100). Filters were dried and mixed with scintillant, and counted for ^35S activity using a β-counter. Agonist-induced GTP γ^35S binding was obtained by subtracting that in the absence of agonist. Binding data were analyzed using a non-linear regression method. In case of antagonist assay, the reaction mixture contained 10 nM S1P in the presence of test antagonist at concentrations ranging from 0.08 to 5000 nM.
# T1 sequence (P21453 whole entry): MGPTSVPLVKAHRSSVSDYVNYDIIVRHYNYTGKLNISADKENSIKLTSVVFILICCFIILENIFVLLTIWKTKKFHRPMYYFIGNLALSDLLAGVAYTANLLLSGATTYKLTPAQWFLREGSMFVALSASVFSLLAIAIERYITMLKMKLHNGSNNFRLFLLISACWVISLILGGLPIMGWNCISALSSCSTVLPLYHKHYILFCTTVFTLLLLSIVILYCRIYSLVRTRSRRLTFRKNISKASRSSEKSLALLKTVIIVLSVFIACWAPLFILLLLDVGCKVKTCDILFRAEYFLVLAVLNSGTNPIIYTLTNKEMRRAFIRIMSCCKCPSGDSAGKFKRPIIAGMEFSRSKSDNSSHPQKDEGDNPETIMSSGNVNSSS
row,EC50 [nM],Compound
1,1.37,"Cc1ccc(CC(CCCOc2ccc(CN3CC(C(=O)O)C3)cc2)c2cccc(F)c2F)cc1C (stereo not shown) [1-(4-{([4-(2,3-difluorophenyl)-5-(3,4-dimethylphenyl)pentyl]oxy}benzyl)azetidine-3-carboxylic acid]"
2,5.7,"Cc1ccc(CC(CCCOc2ccc(CN3CC(C(=O)O)C3)cc2)c2ccsc2)cc1C (stereo not shown) [1-(4-{[5-(3,4-dimethylphenyl)-4-(3-thienyl)pentyl]oxy}benzyl)azetidine-3-carboxylic acid]"
3,1.4,"Cc1ccc(CC(CCCOc2ccc(CN3CC(C(=O)O)C3)cc2)c2cc(F)cc(F)c2)cc1C (stereo not shown) [1-(4-{[4-(3,5-difluorophenyl)-5-(3,4-dimethylphenyl)pentyl]oxy}benzyl)azetidine-3-carboxylic acid]"

row,Compound,EC50 [nM]
1,"Cc1ccc(CC(CCOc2ccc(CN3CC(C(=O)O)C3)cc2)c2cccc(Cl)c2)cc1C (stereo not shown) [1-{4-[3-(3-chlorophenyl)-4-(3,4-dimethylphenyl)butoxy]benzyl}azetidine-3-carboxylic acid]",50.2
